The results in this text go back to patent publication US12209102B2, “Heterocyclic compounds and uses thereof” (Kumquat Biosciences Inc., priority 2022, dated 2025).

The target in test [1] is T1, K-Ras G12D (Homo sapiens, UniProt P01116, G12D).
T1 construct: made in house; host or cells: E. coli BL21 (DE3)
Description: HTRF resonance energy transfer assay, K-Ras G12D / SOS1 interaction. The settings on record: HTRF assay of Example 5; read-out: IC50 against K-Ras G12D. It is filed as biochemical. Put shortly:
(§1)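 Compounds, tested in duplicate at 10 μM down to 0.01 μM, were read after about 10 min or more by HTRF as the 665/620 nm emission ratio (337 nm excitation) to derive IC50. This ratio reports FRET between an anti-GST-Eu donor on GST-K-Ras (wild-type or mutant) and an anti-6His-XL665 acceptor on His-hSOS1. Buffer: ~5 mM HEPES pH 7.4, 150 mM NaCl, 1 mM DTT, 0.05% BSA, 0.0025% Igepal.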
(Time-resolved FRET reads energy transfer from a long-lived donor to a nearby acceptor.)

The target of test [2] is T2, K-Ras G12S (Homo sapiens, UniProt P01116, G12S).
T2 construct: made in house; host or cells: E. coli BL21 (DE3)
T2 sequence (P01116 1-188 isoform P01116-2 G12S): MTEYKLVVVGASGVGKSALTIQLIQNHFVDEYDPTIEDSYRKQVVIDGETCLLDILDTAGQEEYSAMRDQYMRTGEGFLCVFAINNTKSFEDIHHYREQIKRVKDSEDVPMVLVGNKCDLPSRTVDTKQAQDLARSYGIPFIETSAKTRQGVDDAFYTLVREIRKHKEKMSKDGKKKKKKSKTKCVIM
Description: HTRF resonance energy transfer assay, K-Ras G12S / SOS1 interaction. In kind it is biochemical. The settings on record: HTRF assay of Example 5; read-out: IC50 against K-Ras G12S. Put shortly:
as §1

For test [3], the target named is T3, K-Ras G12V (Homo sapiens, UniProt P01116, G12V).
T3 construct: made in house; host or cells: E. coli BL21 (DE3)
T3 sequence (P01116 1-188 isoform P01116-2 G12V): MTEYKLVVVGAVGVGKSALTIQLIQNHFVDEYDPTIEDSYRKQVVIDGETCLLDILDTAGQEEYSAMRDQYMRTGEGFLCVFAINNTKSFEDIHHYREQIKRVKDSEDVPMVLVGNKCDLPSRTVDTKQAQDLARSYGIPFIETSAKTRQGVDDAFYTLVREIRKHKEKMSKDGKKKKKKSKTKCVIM
The experiment in a line: HTRF resonance energy transfer assay, K-Ras G12V / SOS1 interaction. The settings on record: HTRF assay of Example 5; read-out: IC50 against K-Ras G12V. It is filed as biochemical. Put shortly: as §1

Test [4] addresses T4, K-Ras WT (Homo sapiens, UniProt P01116).
T4 construct: made in house; host or cells: E. coli BL21 (DE3)
Description: HTRF resonance energy transfer assay, K-Ras WT / SOS1 interaction. In kind it is biochemical. The settings on record: HTRF assay of Example 5; read-out: IC50 against K-Ras WT. Put shortly:
as §1

Test [5] deals with GP2D cells. Description: Ras cellular assay, growth of cells with K-Ras G12D mutation (CellTiter-Glo). It is filed as cell-based. The settings on record: cell growth, Example 9, G12D mutation, read-out: IC50 against GP2D cells. For orientation: In ATP-based viability assays light output follows the ATP content of the culture.
The subject of test [6] is SW620 cells. The experiment in a line: Ras cellular assay, growth of cells with K-Ras G12V mutation (CellTiter-Glo). It is filed as cell-based. The conditions noted are these: Homo sapiens, SW-620; cell growth, Example 9, G12V mutation; read-out: IC50 against SW620 cells. The method, boiled down:
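IC50 values came from a four-parameter fit of CellTiter-Glo viability, read roughly 6 days after dosing with e.g. a 10-point threefold dilution series. G12V-mutant SW620 cells (e.g. 800 per well) had been plated the previous day in RPMI-1640/10% heat-inactivated FBS, on tissue culture-treated or ultra-low attachment plates.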

By IC50 is commonly meant the point on the concentration scale where inhibition reaches its midpoint.

Molecules are shown by their SMILES. Some results are limits rather than exact numbers.

T4 sequence (P01116 1-188 isoform P01116-2): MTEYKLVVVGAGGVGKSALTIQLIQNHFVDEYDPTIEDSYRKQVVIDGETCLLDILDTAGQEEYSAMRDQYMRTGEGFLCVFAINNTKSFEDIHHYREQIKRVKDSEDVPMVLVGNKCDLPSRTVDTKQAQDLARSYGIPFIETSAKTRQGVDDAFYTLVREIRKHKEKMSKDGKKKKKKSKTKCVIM
T1 sequence (P01116 1-188 isoform P01116-2 G12D): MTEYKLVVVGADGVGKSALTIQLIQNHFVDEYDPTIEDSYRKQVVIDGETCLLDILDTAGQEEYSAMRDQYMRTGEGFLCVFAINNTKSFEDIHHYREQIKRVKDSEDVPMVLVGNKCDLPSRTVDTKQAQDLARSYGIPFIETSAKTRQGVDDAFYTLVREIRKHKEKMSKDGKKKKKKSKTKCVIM

Regarding `N#Cc1c(N)sc2c(F)ccc(-c3c(Cl)c4c5c(nc(OC[C@@]67CCCN6C[C@H](F)C7)nc5c3F)N(CCC(F)F)[C@@H](C3CC3)CO4)c12` [Compound 668, 2-amino-4-((S)-8-chloro-5-cyclopropyl-4-(3,3-difluoropropyl)-10-fluoro-2-(((2R,7aS)-2-fluorotetrahydro-1H-pyrrolizin-7a(5H)-yl)methoxy)-5,6-dihydro-4H-[1,4]oxazepino[5,6,7-de]quinazolin-9-yl)-7-fluorobenzo[b]thiophene-3-carbonitrile], the IC50 was less than 100 nM in test [1]; less than 100 nM in test [2]; less than 100 nM in test [3]; less than 100 nM in test [4]; less than 500 nM in test [5]; less than 5000 nM in test [6].
Regarding `N#Cc1c(N)sc2c(F)ccc(-c3c(Cl)c4c5c(nc(OC[C@@]67CCCN6C[C@H](F)C7)nc5c3F)N(CC(F)F)[C@@H](C(F)(F)F)CO4)c12` [Compound 672, 2-amino-4-((R)-8-chloro-4-(2,2-difluoroethyl)-10-fluoro-2-(((2R,7aS)-2-fluorotetrahydro-1H-pyrrolizin-7a(5H)-yl)methoxy)-5-(trifluoromethyl)-5,6-dihydro-4H-[1,4]oxazepino[5,6,7-de]quinazolin-9-yl)-7-fluorobenzo[b]thiophene-3-carbonitrile], the IC50 in test [1] is less than 100 nM; in test [2], less than 100 nM; in test [3] it was less than 100 nM; in test [4], less than 100 nM; in test [5], less than 500 nM; in test [6] it was less than 5000 nM.
`N#Cc1c(N)sc2c(F)ccc(-c3c(Cl)c4c5c(nc(OC[C@@]67CCCN6C[C@H](F)C7)nc5c3F)N(CC(F)F)[C@H](C3(C#N)CC3)CO4)c12` [Compound 722, 2-amino-4-((R)-8-chloro-5-(1-cyanocyclopropyl)-4-(2,2-difluoroethyl)-10-fluoro-2-(((2R,7aS)-2-fluorotetrahydro-1H-pyrrolizin-7a(5H)-yl)methoxy)-5,6-dihydro-4H-[1,4]oxazepino[5,6,7-de]quinazolin-9-yl)-7-fluorobenzo[b]thiophene-3-carbonitrile]: the IC50 was less than 100 nM in test [1]; less than 100 nM in test [2]; less than 100 nM in test [3]; less than 100 nM in test [4]; less than 500 nM in test [5]; less than 5000 nM in test [6].
As for `C[C@H]1C(C(F)F)Oc2c(Cl)c(-c3ccc(F)c4sc(N)c(C#N)c34)c(F)c3nc(OC[C@@]45CCCN4C[C@H](F)C5)nc(c23)N1CC(F)F` (stereo partly drawn) [Compound 723, 2-amino-4-((5S)-8-chloro-4-(2,2-difluoroethyl)-6-(difluoromethyl)-10-fluoro-2-(((2R,7aS)-2-fluorotetrahydro-1H-pyrrolizin-7a(5H)-yl)methoxy)-5-methyl-5,6-dihydro-4H-[1,4]oxazepino[5,6,7-de]quinazolin-9-yl)-7-fluorobenzo[b]thiophene-3-carbonitrile], the IC50 in test [1] was less than 100 nM; in test [2] it was less than 100 nM; in test [3] it was less than 100 nM; in test [4], less than 100 nM; in test [5] it was less than 500 nM; in test [6] it was less than 5000 nM.
As for `CC(O)C1COc2c(Cl)c(-c3ccc(F)c4sc(N)c(C#N)c34)c(F)c3nc(OC[C@@]45CCCN4C[C@H](F)C5)nc(c23)N1CCN(C)C` (stereo partly drawn) [Compound 745, 2-amino-4-(8-chloro-4-(2-(dimethylamino)ethyl)-10-fluoro-2-(((2R,7aS)-2-fluorotetrahydro-1H-pyrrolizin-7a(5H)-yl)methoxy)-5-(1-hydroxyethyl)-5,6-dihydro-4H-[1,4]oxazepino[5,6,7-de]quinazolin-9-yl)-7-fluorobenzo[b]thiophene-3-carbonitrile], the IC50 in test [1] is less than 100 nM; in test [2], less than 100 nM; in test [3] it was less than 100 nM; in test [4], less than 100 nM; in test [5], less than 500 nM; in test [6], less than 5000 nM.
As for `N#Cc1c(N)sc2c(F)ccc(-c3c(Cl)c4c5c(nc(OC[C@@]67CCCN6C[C@H](F)C7)nc5c3F)N(CC(F)F)CCO4)c12` [Compound 748, 2-amino-4-(8-chloro-4-(2,2-difluoroethyl)-10-fluoro-2-(((2R,7aS)-2-fluorotetrahydro-1H-pyrrolizin-7a(5H)-yl)methoxy)-5,6-dihydro-4H-[1,4]oxazepino[5,6,7-de]quinazolin-9-yl)-7-fluorobenzo[b]thiophene-3-carbonitrile], the IC50 in test [1] was less than 100 nM; in test [2], less than 100 nM; in test [3] it was less than 100 nM; in test [4], less than 100 nM; in test [5], less than 500 nM; in test [6], less than 5000 nM.
As for `C[C@H](O)[C@H]1COc2c(Cl)c(-c3ccc(F)c4sc(N)c(C#N)c34)c(F)c3nc(OC[C@@]45CCCN4C[C@H](F)C5)nc(c23)N1` [Compound 775, 2-amino-4-((5R)-8-chloro-10-fluoro-2-(((2R,7aS)-2-fluorotetrahydro-1H-pyrrolizin-7a(5H)-yl)methoxy)-5-((S)-1-hydroxyethyl)-5,6-dihydro-4H-[1,4]oxazepino[5,6,7-de]quinazolin-9-yl)-7-fluorobenzo[b]thiophene-3-carbonitrile], the IC50 in test [1] is less than 100 nM; in test [2] it was less than 100 nM; in test [3], less than 100 nM; in test [4], less than 100 nM; in test [5], less than 500 nM; in test [6] it was less than 5000 nM.
For `N#Cc1c(N)sc2c(F)ccc(-c3c(Cl)c4c5c(nc(OC[C@@]67CCCN6C[C@H](F)C7)nc5c3F)N(C3CCCCC(O)C3)CCO4)c12` (stereo partly drawn) [Compound 795, 2-amino-4-(8-chloro-10-fluoro-2-(((2R,7aS)-2-fluorotetrahydro-1H-pyrrolizin-7a(5H)-yl)methoxy)-4-(3-hydroxycycloheptyl)-5,6-dihydro-4H-[1,4]oxazepino[5,6,7-de]quinazolin-9-yl)-7-fluorobenzo[b]thiophene-3-carbonitrile], the IC50 in test [1] is less than 100 nM; in test [2], less than 100 nM; in test [3], less than 100 nM; in test [4] it was less than 100 nM; in test [5], less than 500 nM; in test [6], less than 5000 nM.
As to `CC(C)(O)[C@H]1COc2c(Cl)c(-c3ccc(F)c4sc(N)c(C#N)c34)c(F)c3nc(OC[C@@]45CCCN4C[C@H](F)C5)nc(c23)N1` [Compound 815, 2-amino-4-((5R)-8-chloro-10-fluoro-2-(((2R,7aS)-2-fluorotetrahydro-1H-pyrrolizin-7a(5H)-yl)methoxy)-5-(2-hydroxypropan-2-yl)-5,6-dihydro-4H-[1,4]oxazepino[5,6,7-de]quinazolin-9-yl)-7-fluorobenzo[b]thiophene-3-carbonitrile], the IC50 in test [1] is less than 100 nM; in test [2] it was less than 100 nM; in test [3] it was less than 100 nM; in test [4], less than 100 nM; in test [5], less than 500 nM; in test [6], less than 5000 nM.
As to `N#Cc1c(N)sc2c(F)ccc(-c3c(Cl)c4c5c(nc(OC[C@@]67CCCN6C[C@H](F)C7)nc5c3F)N(CC3CC3C#N)[C@@H](C3(O)CC3)CO4)c12` (stereo partly drawn) [Compound 876, 2-amino-4-((5R)-8-chloro-4-((2-cyanocyclopropyl)methyl)-10-fluoro-2-(((2R,7aS)-2-fluorotetrahydro-1H-pyrrolizin-7a(5H)-yl)methoxy)-5-(1-hydroxycyclopropyl)-5,6-dihydro-4H-[1,4]oxazepino[5,6,7-de]quinazolin-9-yl)-7-fluorobenzo[b]thiophene-3-carbonitrile], the IC50 was less than 100 nM in test [1]; less than 100 nM in test [2]; less than 100 nM in test [3]; less than 100 nM in test [4]; less than 500 nM in test [5]; less than 5000 nM in test [6].
As for `CN(C)CCN1c2nc(OC[C@@]34CCCN3C[C@H](F)C4)nc3c(F)c(-c4ccc(F)c5sc(N)c(C#N)c45)c(Cl)c(c23)OCC1CC#N` (stereo partly drawn) [Compound 885, 2-amino-4-(8-chloro-5-(cyanomethyl)-4-(2-(dimethylamino)ethyl)-10-fluoro-2-(((2R,7aS)-2-fluorotetrahydro-1H-pyrrolizin-7a(5H)-yl)methoxy)-5,6-dihydro-4H-[1,4]oxazepino[5,6,7-de]quinazolin-9-yl)-7-fluorobenzo[b]thiophene-3-carbonitrile], the IC50 was less than 100 nM in test [1]; less than 100 nM in test [2]; less than 100 nM in test [3]; less than 100 nM in test [4]; less than 500 nM in test [5]; less than 5000 nM in test [6].
